This test concerns VE-cadherin. The test can be described thus: Visualization of VE-cadherin (adherens junction disruption) in HRECs. The test is classed as cell-based, human. Particulars: for VEGF-induced VE-cadherin breakdown: HRECs, 50 μM cystamine or 20 μM MDC 30 min, 10 ng/ml VEGF; for VEGF-induced VE-cadherin disruption: summary statement, conditions not given. On the procedure: Actin filaments and VE-cadherin were visualized as previously described. For visualization of actin filaments, cells were treated with 10 ng/ml VEGF for 1 hr at 37° C., fixed with 3.7% formaldehyde, and permeabilized with 0.2% Triton X-100. […] For visualization of VE-cadherin, cells were preincubated with the TGase2 inhibitors for 30 min and treated with 10 ng/ml VEGF for 90 min at 37° C. Following fixation and permeabilization, cells were incubated overnight with a monoclonal anti-VE-cadherin antibody (1:200, Santa Cruz Biotechnology) at 4° C. Cells were then probed with an FITC-conjugated goat anti-mouse antibody (1:200, Sigma) and VE-cadherin was visualized using confocal microscopy. Adherens junctions are represented by histograms of VE-cadherin as indicated by dotted lines and were quantitatively analyzed using peak fluorescence intensities of the histograms at the single-cell level for 10 randomly selected cells per experiment.
(A-C) HRECs were preincubated with 50 μM cystamine (Cys) and 20 μM MDC for 30 min and treated with 10 ng/ml VEGF. Stress fibers and VE-cadherin were stained and visualized by confocal microscopy as described in Research Design and Methods (n=3) ((A) Representative images of stress fibers. Scale Bar, 30 μm. (B) Representative images of VE-cadherin. Scale Bar, 10 μm). Adherens junctions are represented by histograms of VE-cadherin as indicated by dotted lines. (C) Adherens junctions were quantitatively analyzed using the peak fluorescence intensities of the histograms at the single-cell level. The results are expressed as mean±SD from three independent trials. (D) In-vitro endothelial cell monolayer permeability assay. HRECs on inserts of Transwell® Permeable Supports were incubated with 50 μM cystamine and 20 μM MDC for 30 min and treated with 10 ng/mL VEGF for 90 min. The amount of FITC-dextran that diffused to the lower chamber was measured by a microplate spectrofluorometer (n=3) (**p<0.01).
HRECs were transfected with 100 nM human TGase2-specific siRNA (TGase2 siRNA) or 100 nM control (Ctrl) siRNA. Endothelial cells were treated with 10 ng/ml VEGF and subjected to the confocal microscopic visualization of stress fibers (A) and VE-cadherin (B), as described in Research Design and Methods (n=3). (A) TGase2 siRNA inhibition of VEGF-induced formation of stress fibers. Scale bar, 30 μm. (B) Representative images of VE-cadherin and adherens junctions represented by VE-cadherin histograms. Scale bar, 10 μm. (C) Adherens junctions were quantitatively analyzed using peak fluorescence intensities of the histograms at the single-cell level. Results are expressed as mean±SD from three independent experiments (***p<0.001).

Consider four compounds from US10155948B2, “Pharmaceutical composition for preventing or treating diabetic complications and screening method for preventive or therapeutic agent for diabetic complications” (KANGWON NATIONAL UNIVERSITY UNIVERSITY-INDUSTRY COOPERATION …, priority 2016, dated 2018).

Each structure is given as a SMILES string.

For the compound `NCCSSCCN` [cystamine], the “VEGF-induced VE-cadherin breakdown” value is on record as “inhibited”.

Consider `NCCS` [cysteamine], for which the “VEGF-induced VE-cadherin disruption” value is “prevented”.

On to `NCCc1ccc(O)c(O)c1` [dopamine], for which the “VEGF-induced VE-cadherin disruption” value is recorded as “prevented”.

Regarding `CN(C)c1cccc2c(S(=O)(=O)NCCCCCN)cccc12` [MDC, monodansylcadaverine], the “VEGF-induced VE-cadherin breakdown” value is on record as “inhibited”.
